{
  "source": "patent US11254700B2",
  "about": "“GSK-3β inhibitors and use thereof in methods of treatment” (UNIVERSITY OF HAWAII, priority 2017, dated 2022)",
  "key": {"amyloid plaques": {"test_system": "amyloid plaques", "test": "Thioflavin-S staining of brain plaques", "type": "in vivo, mouse", "design": "dose or concentration left out as unconfirmed", "details": "more pronounced with increasing dose", "procedure": "The backgrounds of all mice (APP/PS1 dual transgenic mice and wild-type mice with littermates) were C57/B6. Transgenic mice were randomly divided into three groups (n=20 for each group), and wild-type mice were used as controls (n=20). […] Throughout the study-period, animals were housed in a controlled environment (temperature, 22° C.; humidity, 50-60%, 12-hour light/12-hour dark schedules), with free access to rodent chow and water. After a Morris water maze test, mice were perfused with cold phosphate-buffered saline (PBS), brain tissues were dissected and kept frozen at −80° C. until further analysis. […] The brain tissue was then embedded in an OCT agent and placed at −80° C. for storage until use. […] The Thio-S staining procedure was according to known methods (Maiti, et al. (2016) Histochem. Cell Biol. 146(5):609-625). Briefly, Thio-S solution at 0.1% (w/v) was prepared by dissolving 0.1 gram of Thioflavin-S(Sigma-Aldrich) in 50% ethanol (v/v). The tissue sections were washed three times with PBS for five minutes each time. The sections were incubated with 0.1% Thio-S for 10 minutes, dipping them three times in 50% ethanol (v/v) for 10 minutes each time, and finally washing once in PBS, before being mounted, as described above. The sections were visualized using a fluorescence microscope (Leica, Germany), with excitation/emission filters (480/550 nm)."}, "GSK-3β": {"target": "GSK-3β (Homo sapiens, UniProt P49841)", "sequence (P49841 whole entry)": "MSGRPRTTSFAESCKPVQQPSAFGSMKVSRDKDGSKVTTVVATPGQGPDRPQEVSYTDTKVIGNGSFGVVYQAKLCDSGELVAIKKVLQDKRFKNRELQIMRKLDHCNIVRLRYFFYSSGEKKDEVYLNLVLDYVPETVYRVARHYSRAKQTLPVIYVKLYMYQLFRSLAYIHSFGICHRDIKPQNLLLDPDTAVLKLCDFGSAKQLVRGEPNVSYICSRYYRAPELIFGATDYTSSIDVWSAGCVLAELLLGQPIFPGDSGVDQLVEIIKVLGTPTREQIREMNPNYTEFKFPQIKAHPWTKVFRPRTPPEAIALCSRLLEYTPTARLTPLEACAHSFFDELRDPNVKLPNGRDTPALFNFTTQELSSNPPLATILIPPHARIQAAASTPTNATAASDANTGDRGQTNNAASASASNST", "test": "Kinase luminescent assay (ADP-Glo), GSK-3β inhibition", "type": "biochemical", "details": "25 μM ATP, 1 hour, room temperature; mean of quadruplicate of two experiments; read-out: IC50 against GSK-3β", "procedure": "Kinase Luminescent Assay.\nKinase inhibition was assessed with the ADP-Glo Kinase Assay. […] The reaction mixture was incubated for 1 hour at room temperature followed by the addition of the ADP-Glo′ reagents according to the manufacturer's protocol. The kinase inhibitor staurosporine was used at 1 μM as a reference control. Each data point was collected in quadruplicate of two independent experiments."}, "[1]": {"test_system": "TNFα, IL-2, IFN-γ, IL-4, IL-10", "test": "Serum cytokines", "type": "in vivo, mouse", "details": "APP/PS1 mice, vs model group", "procedure": "The backgrounds of all mice (APP/PS1 dual transgenic mice and wild-type mice with littermates) were C57/B6. Transgenic mice were randomly divided into three groups (n=20 for each group), and wild-type mice were used as controls (n=20). The control group and one group of transgenic mice (model group) were given sterilized ultrapure water, and the other two groups of transgenic mice received low- and high-dose Isoorientin (20 and 50 mg/kg, respectively) via intragastric administration for 60 days. Throughout the study-period, animals were housed in a controlled environment (temperature, 22° C.; humidity, 50-60%, 12-hour light/12-hour dark schedules), with free access to rodent chow and water. After a Morris water maze test, mice were perfused with cold phosphate-buffered saline (PBS), brain tissues were dissected and kept frozen at −80° C. until further analysis. […] T-cell-specific cytokines (Interferon-γ (IFN-γ), interleukin (IL)-2, IL-4, and IL-10) in mouse serum were also measured. Mouse Th17 Magnetic Bead Panel 96-Well Plate Assay was purchased from Millipore. The assay was performed in a 96-well plate and all reagents were prepared according to the Millipore instructions. Briefly, 200 μL of Wash Buffer was added into each well to pre-wet plate, Wash Buffer was decanted thoroughly and the plate was mixed on a plate shaker for 10 minutes at room temperature (25-27° C.). In accordance with the instructions of the kit, the appropriate reagents were added to the wells and the plate was sealed and incubated overnight at 4° C. in the dark. Plates were put on the magnetic support and each well was washed twice with 200 μl of wash buffer via a plate shaker at 450 rpm for 2 minutes at room temperature. After adding 5 μl of detection antibody to each well, the plate was sealed and incubated with agitation on a plate shaker for 1 hour at room temperature. […] Binding was assessed using a LUMINEX-200 instrument and xPONENT software. Serum samples were analyzed for IL4 and TNFα using a Mouse IL4 ELISA Kit and a Mouse TNFα ELISA Kit, respectively, according to the manufacturer's instructions. […]"}, "[2]": {"test_system": "SH-SY5Y cells treated with Aβ42 oligomers", "test": "Anti-Aβ42 neurotoxicity assay", "type": "cell-based, human", "procedure": "Human neuroblastoma SH-SY5Y cell line (Sigma-Aldrich, Saint Louis, Mo.) was cultured in DMEM/F12 (v/v 1:1) media supplemented with 2 mM glutamine, 10% heat-inactivated fetal bovine serum (FBS) and 1% antibiotics including penicillin and streptomycin. After reaching 70-80% confluence, cells were then subcultured on poly-L-lysine plates with 10 μM retinoic acid in a reduced serum media (1% FBS) to promote neuronal maturation and differentiation as described (Agholme, et al. (2010) J. Alzheimer's Dis. 20: 1069-1082). Cell cultures were incubated at 37° C. in a fully humidified atmosphere containing 5% CO2.\nThe toxic oligomers of Aβ42 were prepared as described (Liang, et al. (2016) ACS Chem. Neurosci. 7:912-923). Briefly, lyophilized Aβ42 peptide was dissolved in hexafluoroisopropanol, dried under vacuum, and stored at −20° C. Immediately prior to use, the peptide residue was reconstituted in DMEM/F12 media to make a stock solution at 0.1 mM and incubated at 4° C. for 24 hours to form diffusible oligomers. Aβ42 oligomers at a final concentration of 10 μM were assayed for cell viability.\nSH-SY5Y cells were seeded at a density of 3×10^5 cells/mL in a 96-well plate in DMEM/F12 media containing 10 μM retinoic acid and 1% FBS to suppress cell proliferation. Cells were incubated under regular culture conditions for attachment. After 24 hours of plating, the cells were pretreated with different concentrations of test samples or the 0.2% DMSO as a vehicle control for 1 hour and then co-incubated with 10 μM Aβ42 for 72 hours. After the experimental treatment, the cells were subject to a […]® 96 AQueous One Solution Cell Proliferation […] Assay according to the manufacturer's instruction. […] Each data point was collected in triplicate of two independent experiments."}, "in vitro": {"test": "in vitro", "details": "PAMPA, 5 h, 20 μM, pH 7.4", "procedure": "Samples were run in quadruplicate.\nOral administration is noninvasive and is preferred for chronical diseases such as Alzheimer's disease and other CNS disorders. […] In the PAMPA model, the amount of target compounds diffused from a donor compartment to an acceptor compartment through a tri-layer phospholipid pre-coated membrane are measured to assess oral-absorption potential of drug candidates. In the present study, 1, 4, 9, 17, 21 and 30 were evaluated with the PAMPA assay."}},
  "data": [
    {"molecule": "O=c1cc(-c2ccc(O)c(O)c2)oc2cc(O)c([C@@H]3O[C@H](CO)[C@@H](O)[C@H](O)[C@H]3O)c(O)c12", "note": "[Compound 1, isoorientin]", "values": [
      {"measurement": "thioflavin-S-positive plaques", "setting": "amyloid plaques", "value": "reduced"},
      {"measurement": "IC50", "setting": "GSK-3β", "value": 185, "unit": "µM"},
      {"measurement": "IFNγ in serum", "setting": "[1]", "value": "no statistical difference in the decrease"},
      {"measurement": "anti-inflammatory factors (IL-4, IL-10) in serum", "setting": "[1]", "value": "significantly elevated"},
      {"measurement": "pro-inflammatory factors (TNFα, IFNγ, IL-2) in serum", "setting": "[1]", "value": "slightly lower than those in the model group"},
      {"measurement": "EC50", "setting": "[2]; Homo sapiens, SH-SY5Y, 1 hour pretreatment, 10 μM Aβ42, 72 hours, read-out: neuroprotective potency EC50", "value": 47, "unit": "µM"},
      {"measurement": "effective dose, morphological protection from Aβ42 intoxication", "setting": "[2]; morphological observations", "value": 200, "unit": "μM"},
      {"measurement": "Pe", "setting": "in vitro", "value": "0.51 ± 0.01 ×10^−6 cm/s"},
      {"measurement": "R (percent recovery)", "setting": "in vitro", "value": 48, "unit": "%"}
    ]}
  ]
}
